Source: patent US8680339B2, “Herbicides” (Syngenta Limited, priority 2009, dated 2014)

Legend:
Type in all cases: in vivo
[1] = tested on: Alopecurus myosuroides (ALOMY); assay: Pre-emergence herbicidal activity, glasshouse pot test; settings: rate 250 g/ha, evaluated after 13 days, 100=total damage to plant, 0=no damage to plant; for pest or weed control at 250 g/ha: Alopecurus myosuroides, 312 h
Protocol: (§1) Seeds of a variety of test species were sown in standard soil in pots. After cultivation for one day (pre-emergence) or after 8 days cultivation (post-emergence) under controlled conditions in a glasshouse (at 24/16° C., day/night; 14 hours light; 65% humidity), the plants were sprayed with an aqueous spray solution derived from the formulation of the technical active ingredient in acetone/water (50:50) solution containing 0.5% Tween 20 (polyoxyethelyene sorbitan monolaurate, CAS RN 9005-64-5). The test plants were then grown in a glasshouse under controlled conditions in a glasshouse (at 24/16° C., day/night; 14 hours light; 65% humidity) and watered twice daily. After 13 days for pre and post-emergence, the test was evaluated (100=total damage to plant; 0=no damage to plant). Test Plants: Lolium perenne (LOLPE), Alopecurus myosuroides (ALOMY), Echinochloa crus-galli (ECHCG), and Avena fatua (AVEFA). Pre-Emergence Activity

[2] = tested on: Avena fatua (AVEFA); assay: as above; settings: rate 250 g/ha, evaluated after 13 days, 100=total damage to plant, 0=no damage to plant; for pest or weed control at 250 g/ha: Avena fatua, 312 h
Protocol: as §1

[3] = tested on: Echinochloa crus-galli (ECHCG); assay: as above; settings: rate 250 g/ha, evaluated after 13 days, 100=total damage to plant, 0=no damage to plant; for pest or weed control at 250 g/ha: Echinochloa crus-galli, 312 h
Protocol: as §1

[4] = tested on: Lolium perenne (LOLPE); assay: as above; settings: rate 250 g/ha, evaluated after 13 days, 100=total damage to plant, 0=no damage to plant; for pest or weed control at 250 g/ha: Lolium perenne, 312 h
Protocol: as §1

[5] = tested on: Alopecurus myosuroides (ALOMY); assay: Post-emergence herbicidal activity, glasshouse pot test; settings: rate 250 g/ha, evaluated after 13 days, 100=total damage to plant, 0=no damage to plant; for pest or weed control at 250 g/ha: Alopecurus myosuroides, 312 h
Protocol: as §1, with “Post-Emergence” for “Pre-Emergence”

[6] = tested on: Avena fatua (AVEFA); assay: as above; settings: rate 250 g/ha, evaluated after 13 days, 100=total damage to plant, 0=no damage to plant; for pest or weed control at 250 g/ha: Avena fatua, 312 h
Protocol: as §1, with “Post-Emergence” for “Pre-Emergence”

[7] = tested on: Echinochloa crus-galli (ECHCG); assay: as above; settings: rate 250 g/ha, evaluated after 13 days, 100=total damage to plant, 0=no damage to plant; for pest or weed control at 250 g/ha: Echinochloa crus-galli, 312 h
Protocol: as §1, with “Post-Emergence” for “Pre-Emergence”

[8] = tested on: Lolium perenne (LOLPE); assay: as above; settings: rate 250 g/ha, evaluated after 13 days, 100=total damage to plant, 0=no damage to plant; for pest or weed control at 250 g/ha: Lolium perenne, 312 h
Protocol: as §1, with “Post-Emergence” for “Pre-Emergence”

SMILES	pest or weed control at 250 g/ha [1]	pest or weed control at 250 g/ha [2]	pest or weed control at 250 g/ha [3]	pest or weed control at 250 g/ha [4]	pest or weed control at 250 g/ha [5]	pest or weed control at 250 g/ha [6]	pest or weed control at 250 g/ha [7]	pest or weed control at 250 g/ha [8]	damage to plant ALOMY [1]	damage to plant AVEFA [2]	damage to plant ECHCG [3]	damage to plant LOLPE [4]	damage to plant ALOMY [5]	damage to plant AVEFA [6]	damage to plant ECHCG [7]	damage to plant LOLPE [8]
Cc1cc(Oc2cnc3cc(Cl)ccc3n2)cc(C)c1C1=C(O)C2C(C1=O)[C@H]1CC[C@@H]2CC1 (stereo partly drawn) [Compound A-21]	10%	0%	50%	30%	10%	0%	70%	0%	–	–	–	–	–	–	–	–
Cc1cc(Oc2ccc(Cl)cc2)cc(C)c1C1=C(O)CC(CC2CCOCC2)C1=O (stereo not drawn) [Compound A-34]	80%	30%	70%	70%	80%	60%	80%	70%	–	–	–	–	–	–	–	–
Cc1cc(Oc2ccc(Cl)cc2)cc(C)c1C1=C(O)[C@H]2[C@@H](C1=O)[C@@H]1CC[C@H]2O1 [Compound A-4]	100%	70%	90%	80%	100%	90%	100%	100%	–	–	–	–	–	–	–	–
Cc1cc(Oc2ncc(Cl)cc2F)cc(C)c1C1=C(O)[C@H]2[C@@H](C1=O)[C@@H]1CC[C@H]2O1 [Compound A-25]	–	–	–	–	–	–	–	–	40	30	70	80	90	70	70	80
Cc1cc(Oc2ccc(Br)cc2F)cc(C)c1C1=C(O)[C@H]2[C@@H](C1=O)[C@@H]1CC[C@H]2O1 [Compound A-3, meso-(1R,2S,6R,7S)-4-(4-[4-bromo-2-fluorophenoxy]-2,6-dimethylphenyl)-10-oxatricyclo[5.2.1.0^2,6]decane-3,5-dione]	80%	30%	90%	80%	100%	90%	100%	90%	–	–	–	–	–	–	–	–
Cc1cc(Oc2ccc(F)cc2)cc(C)c1C1=C(O)[C@H]2[C@@H](C1=O)[C@@H]1CC[C@H]2O1 [Compound A-15]	60%	70%	70%	90%	90%	90%	100%	90%	–	–	–	–	–	–	–	–
Cc1cc(Oc2ccc(F)cc2F)cc(C)c1C1=C(O)[C@H]2[C@@H](C1=O)[C@@H]1CC[C@H]2O1 [Compound A-6]	70%	30%	70%	80%	90%	70%	90%	70%	–	–	–	–	–	–	–	–
Cc1cc(Oc2ccc3cc(Cl)ccc3n2)cc(C)c1C1=C(O)CC(CC2CCOCC2)C1=O (stereo not drawn) [Compound A-37, 2-[4-(6-chloroquinolin-2-yloxy)-2,6-dimethylphenyl]-4-(tetrahydropyran-4-ylmethyl)cyclopentane-1,3-dione]	10%	10%	90%	0%	50%	60%	80%	40%	–	–	–	–	–	–	–	–
Cc1cc(Oc2ncc(Cl)cc2Cl)cc(C)c1C1=C(O)[C@H]2[C@@H](C1=O)[C@@H]1CC[C@H]2O1 [Compound A-26]	90%	60%	100%	100%	100%	70%	90%	100%	–	–	–	–	–	–	–	–
Cc1cc(Oc2cc(F)ccc2F)cc(C)c1C1=C(O)[C@H]2[C@@H](C1=O)[C@@H]1CC[C@H]2O1 [Compound A-9]	20%	0%	50%	60%	60%	40%	90%	60%	–	–	–	–	–	–	–	–
CCc1cc(Oc2ccc3cc(Cl)ccc3n2)ccc1C1=C(O)CCC1=O [Compound A-35]	0%	0%	70%	0%	0%	0%	80%	20%	–	–	–	–	–	–	–	–
Cc1cc(Oc2ccccc2Cl)cc(C)c1C1=C(O)[C@H]2[C@@H](C1=O)[C@@H]1CC[C@H]2O1 [Compound A-10]	10%	0%	10%	20%	10%	0%	40%	30%	–	–	–	–	–	–	–	–
Cc1cc(Oc2ccc(Br)cc2)cc(C)c1C1=C(O)[C@H]2[C@@H](C1=O)[C@@H]1CC[C@H]2O1 [Compound A-11]	90%	90%	70%	100%	90%	90%	100%	90%	–	–	–	–	–	–	–	–
Cc1cc(Oc2cccc(Cl)c2)cc(C)c1C1=C(O)[C@H]2[C@@H](C1=O)[C@@H]1CC[C@H]2O1 [Compound A-14]	40%	0%	80%	70%	70%	30%	80%	70%	–	–	–	–	–	–	–	–
Cc1cc(Oc2ncc(Cl)cc2F)cc(C)c1C1=C(O)[C@H]2[C@@H](C1=O)[C@@H]1CC[C@H]2O1 [Compound A-24]	–	–	70%	80%	80%	80%	90%	90%	100	60	–	–	–	–	–	–
Cc1cc(Oc2ccccc2F)cc(C)c1C1=C(O)[C@H]2[C@@H](C1=O)[C@@H]1CC[C@H]2O1 [Compound A-5]	40%	30%	60%	50%	60%	50%	90%	70%	–	–	–	–	–	–	–	–
Cc1cc(Br)ccc1Oc1cc(C)c(C2=C(O)[C@H]3[C@@H](C2=O)[C@@H]2CC[C@H]3O2)c(C)c1 [Compound A-13]	60%	0%	70%	60%	80%	30%	50%	60%	–	–	–	–	–	–	–	–
CCc1cc(Oc2ccc(Cl)cc2)ccc1C1=C(O)[C@H]2[C@@H](C1=O)[C@@H]1CC[C@H]2O1 [Compound A-2]	30%	0%	30%	60%	90%	90%	100%	80%	–	–	–	–	–	–	–	–
